Results as given in article PMC4296974 (Bioorganic & medicinal chemistry letters, 2014).
Values belong to the compound of their own block, whether it stands above or below them.

Legend:
rNTS2 [1] = molecular target: T1, rNTS2 (Rattus norvegicus, UniProt Q63384); test: FLIPR calcium mobilization assay in CHO cell line stably expressing rNTS2; format: cell-based
T1 sequence (Q63384 1-416): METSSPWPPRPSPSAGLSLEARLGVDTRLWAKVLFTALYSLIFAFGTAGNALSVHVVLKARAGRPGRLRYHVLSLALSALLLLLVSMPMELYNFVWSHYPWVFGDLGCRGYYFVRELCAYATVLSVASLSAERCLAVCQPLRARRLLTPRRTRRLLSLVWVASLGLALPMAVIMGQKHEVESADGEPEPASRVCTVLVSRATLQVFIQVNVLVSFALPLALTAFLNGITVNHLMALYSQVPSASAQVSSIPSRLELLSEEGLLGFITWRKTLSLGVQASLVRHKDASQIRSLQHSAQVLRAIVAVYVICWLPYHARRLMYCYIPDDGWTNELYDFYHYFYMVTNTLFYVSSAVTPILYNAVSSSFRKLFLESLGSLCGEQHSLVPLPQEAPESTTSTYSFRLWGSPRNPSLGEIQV

rNTS1 = rNTS1 (Rattus norvegicus, UniProt P20789); conditions: read-out: Binding Assay NTS1 Ki; [125I]NT, bound; cited from earlier work
rNTS2 [2] = molecular target: T1, rNTS2; conditions: Emax value is % of 4; cited from earlier work
rNTS2 [3] = molecular target: T1, rNTS2; test: [125I]NT competition binding assay at NTS2; conditions: relative to 9
NTS1 = NTS1 (Rattus norvegicus, UniProt P20789); test: FLIPR calcium mobilization assay at NTS1; format: cell-based; conditions: 17: agonist and antagonist screen at 10 μM; 9, 14b, 16b: data not shown
NTS1, sequence (P20789 whole entry): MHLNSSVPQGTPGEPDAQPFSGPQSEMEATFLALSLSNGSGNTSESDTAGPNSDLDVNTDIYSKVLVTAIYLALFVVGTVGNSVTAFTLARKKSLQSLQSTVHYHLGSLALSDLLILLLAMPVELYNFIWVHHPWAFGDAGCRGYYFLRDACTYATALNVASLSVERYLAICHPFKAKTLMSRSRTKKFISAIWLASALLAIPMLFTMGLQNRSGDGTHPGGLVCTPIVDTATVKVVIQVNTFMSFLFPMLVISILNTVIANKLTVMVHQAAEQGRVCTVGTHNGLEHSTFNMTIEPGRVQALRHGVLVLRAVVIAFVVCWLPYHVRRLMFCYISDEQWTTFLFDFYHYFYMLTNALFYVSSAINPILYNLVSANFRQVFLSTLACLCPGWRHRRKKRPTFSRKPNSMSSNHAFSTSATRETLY

rNTS1, sequence (P20789 whole entry): as above

Emax (rNTS2 [1]; CHO, read-out: FLIPR Assay NTS2 Emax): 100 ± 5%
Structure (SMILES): COc1cccc(OC)c1-c1cc(C(=O)NC2(C(=O)O)C3CC4CC(C3)CC2C4)nn1-c1ccc(C(=O)N(C)CCCN(C)C)cc1C(C)C (centres unmarked) [Compound 4, reference compound]

Structure (SMILES): C[C@@H]1CN([C@H]2CC[C@](C#N)(c3ccc(F)cc3)CC2)CC[C@]1(C(=O)O)c1ccccc1 [Compound 5, levocabastine]
Ki (rNTS1): > 25 µM
FLIPR Assay NTS2 Emax (rNTS2 [2]): 16±3%

Fold weaker than 9 in NTS2 binding (Ki) (rNTS2 [3]): 5 fold
Activity in the calcium mobilization assay at NTS1 (NTS1): failed to show activity
Fold less active than NT in the NTS2 functional assay (rNTS2 [1]; IC50 comparison with NT): 25 fold
Structure (SMILES): COc1cccc(OC)c1-c1nc(C(=O)N[C@H](C(=O)O)C2CCCCC2)nc2ccc(Cl)cc12 [Compound 14b]

Fold weaker than 9 in NTS2 binding (Ki) (rNTS2 [3]): 11 fold
Activity in the calcium mobilization assay at NTS1 (NTS1): failed to show activity
Fold lower activity than 9 in NTS2 FLIPR assay (EC50) (rNTS2 [1]; relative to 9): roughly 10 fold
Structure (SMILES): COc1cccc(OC)c1-c1nc(C(=O)NC2(C(=O)O)CCCCC2)nc2ccc(Cl)cc12 [Compound 16b]

Activity in the calcium mobilization assay at NTS1 (NTS1): devoid of activity
Structure (SMILES): O=C(O)c1cc(Nc2nc(-c3ccccc3)c3cc(Cl)ccc3n2)ccc1O [Compound 17]

inhibition at 10 µM (rNTS2 [1]; CHO, read-out: % inhibition of calcium release mediated by 4 at NTS2): < 30%
Structure (SMILES): COc1cccc(OC)c1-c1cc(C(=O)N[C@@H](CC(C)C)C(=O)O)nn1-c1ccc(F)cc1 [Compound 21, reference compound]
